The target of this assay is KRAS^G12C (Homo sapiens, UniProt P01116, C118A/G12C). Nature of the assay: Coupled Nucleotide Exchange Assay. The assay is classed as biochemical. Conditions: GDP-bound KRAS (aa 1-169) G12C/C118A; 2 h compound pre-incubation; SOS-mediated exchange, 30 min; cRAF binding (AlphaLISA). As for the experimental part: The KRAS^G12C coupled nucleotide exchange assay allows for the screening and profiling of KRAS^G12C antagonists/inhibitors by monitoring the binding of an effector protein (e.g., a Ras binding domain of Raf1, RBD-cRaf) to KRAS^G12C. Purified GDP-bound KRAS protein (aa 1-169), containing both G12C and C118A amino acid substitutions and an N-terminal His-tag, was pre-incubated in assay buffer (25 mM HEPES pH 7.4, 10 mM MgCl2, 0.01% Triton X-100, either with or without 0.1% BSA) with serially diluted compound for 2 h. For all subsequent steps, BSA was omitted and DTT was added to the reaction buffer at a final concentration of 1 mM. Following compound pre-incubation, purified SOS protein (aa 564-1049) and GTP (Roche 10106399001) were added to the assay wells and incubated for an additional 30 min. To determine the extent of inhibition of SOS-mediated nucleotide exchange, purified GST-tagged cRAF (aa 1-149), nickel chelate AlphaLISA acceptor beads (PerkinElmer AL108R), and AlphaScreen glutathione donor beads (PerkinElmer 6765302) were added to the assay wells and incubated for 5-30 min. The assay plates were then read on a plate reader measuring luminescence signal. Signal intensity of compound-containing wells were normalized to DMSO control, and data were analyzed using a 4-parameter logistic model to calculate IC50 values.
Sequence of KRAS^G12C (P01116 1-169 isoform P01116-2 G12C/C118A): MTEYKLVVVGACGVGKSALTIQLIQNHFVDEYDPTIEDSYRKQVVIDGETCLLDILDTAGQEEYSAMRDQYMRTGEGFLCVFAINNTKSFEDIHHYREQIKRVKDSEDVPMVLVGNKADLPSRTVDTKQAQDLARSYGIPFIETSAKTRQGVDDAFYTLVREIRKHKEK
As to `C=CC(=O)N1CCN([C@@H]2CN(c3cc(N4CCC5(C=CCOC5)CC4)nc(C(F)(F)F)n3)[C@@H]2C)CC1` [Compound 3-021, 1-(4-((2R,3R)-1-(6-(2-Oxa-9-azaspiro[5.5]undec-4-en-9-yl)-2-(trifluoromethyl)pyrimidin-4-yl)-2-methylazetidin-3-yl)piperazin-1-yl) prop-2-en-1-one], the IC50 amounted to 3.86 µM.
The figure for `C=CC(=O)N1CCN(C2CN(c3cc(N4C5CCC4CC4(CCCO4)C5)nc(C(F)F)c3C)C2)CC1` (stereo not drawn) [Compound 3-071, 1-(4-(1-(2-(difluoromethyl)-6-(dihydro-3′H-8-azaspiro[bicyclo[3.2.1]octane-3,2′-furan]-8-yl)-3-methylpyridin-4-yl)azetidin-3-yl)piperazin-1-yl)prop-2-en-1-one] is 2.99 µM; for `C=CC(=O)N1CCN([C@@H]2CN(c3cc(N4CCC5(C=CCO5)CC4)nc(C(F)F)n3)[C@@H]2C)CC1` [Compound 3-012, 1-(4-((2R,3R)-1-(2-(difluorometh-yl)-6-(1-oxa-8-azaspiro[4.5]dec-3-en-8-yl)pyrimidin-4-yl)-2-methyl-azetidin-3-yl)piperazin-1-yl)prop-2-en-1-one] it is 2.54 µM.
Consider `C=CC(=O)N1CCN(C2CN(c3cc(N4CCC5(CC4)COC5)nc(C(F)(F)F)c3C#N)C2)CC1` [Compound 3-019, 4-(3-(4-acryloylpiperazin-1-yl)-azetidin-1-yl)-6-(2-oxa-7-azaspiro [3.5]nonan-7-yl)-2-(trifluorometh-yl)nicotinonitrile], for which the IC50 was 4.4 µM.
For `C=CC(=O)N1CCN([C@@H]2CN(c3cc(N4CCC5(C=CCC5)CC4)nc(C(F)(F)F)n3)[C@@H]2C)CC1` [Compound 3-073, 1-(4-((2R,3R)-1-(6-(8-Azaspiro[4.5]dec-1-en-8-yl)-2-(trifluoromethyl)pyrimidin-4-yl)-2-methylazetidin-3-yl)piperazin-1-yl) prop-2-en-1-one] the value was 4.3 µM; for `C=CC(=O)N1CCN(C2CN(c3cc(N4C5CCC4CC4(CCCO4)C5)nc(C(F)(F)F)n3)C2)CC1` (stereo not drawn) [Compound 3-025, 1-(4-(1-(6-(dihydro-3′H-8-azaspiro[bicyclo[3.2.1]octane-3,2′-furan]-8-yl)-2-(trifluoromethyl)pyrimidin-4-yl)azetidin-3-yl)piperazin-1-yl)prop-2-en-1-one], 3.72 µM.
For `C=CC(=O)N1CCN(C2CN(c3cc(N4CCC5(CC4)OCc4cnn(C)c45)nc(C(F)(F)F)n3)C2)CC1` [Compound 3-047, 1-(4-(1-(6-(1-methyl-1,4-dihydrospiro[furo[3,4-c]pyrazole-6,4′-piperidin]-1′-yl)-2-(trifluoromethyl)pyrimidin-4-yl)azetidin-3-yl)piperazin-1-yl)prop-2-en-1-one] the value was 2.69 µM.
In turn, `C=CC(=O)N1CCN([C@@H]2CN(c3cc(N4CCC5(CC4)C(F)(F)C54CC4)nc(C(F)(F)F)n3)[C@@H]2C)CC1` [Compound 3-022, 1-(4-((2R,3R)-1-(6-(10.10-difluoro-7-azadispiro[2.0.5^4.1^3]decan-7-yl)-2-(trifluoromethyl)pyrimidin-4-yl)-2-methylazetidin-3-yl)piperazin-1-yl)prop-2-en-1-one] displayed an IC50 of 5.61 µM.
For `C=CC(=O)N1CCN(C2CN(c3cc(N4CCC5(CC4)CC(C#N)CO5)nc(C(F)(F)F)c3C#N)C2)CC1` (stereo not drawn) [Compound 3-030, 8-(4-(3-(4-acryloylpiperazin-1-yl)azetidin-1-yl)-5-cyano-6-(trifluoromethyl)pyridin-2-yl)-1-oxa-8-azaspiro[4.5]decane-3-carbonitrile] the value was 9.59 µM.
The figure for `C=CC(=O)N1CCN([C@@H]2CN(c3cc(N4CCC5(CC4)COc4nccc(C)c45)nc(C(F)F)n3)[C@@H]2C)CC1` [Compound 3-086, 1-(4-((2R,3R)-1-(2-(difluoromethyl)-6-(4-methyl-2H-spiro[furo[2.3-b]pyridine-3,4′-piperidin]-1′-yl)pyrimidin-4-yl)-2-methylazetidin-3-yl)piperazin-1-yl)prop-2-en-1-one] is 2.91 µM.
The figure for `C=CC(=O)N1CCN([C@@H]2CN(c3cc(N4CCC5(C=CCO5)CC4)nc(C(F)(F)F)n3)[C@@H]2C)CC1` [Compound 3-011, 1-(4-((2R,3R)-1-(6-(1-oxa-8-aza-spiro[4.5]dec-3-en-8-yl)-2-(tri-fluoromethyl)pyrimidin-4-yl)-2-methylazetidin-3-yl)piperazin-1-yl)prop-2-en-1-one] is 0.964 µM; for `C=CC(=O)N1CCN([C@@H]2CN(c3cc(N4CC[C@@]5(CC4C)OCCc4ncsc45)nc(C(F)(F)F)n3)[C@@H]2C)CC1` (single isomer, unassigned) [Compound 3-091-2] it is 0.883 µM; for `C=CC(=O)N1CCN(C2CN(c3cc(N4CCC5(CC4)CN(CC)C(=O)O5)nc(C(F)(F)F)c3C#N)C2)CC1` [Compound 3-033, 4-(3-(4-acryloylpiperazin-1-yl)azetidin-1-yl)-6-(3-ethyl-2-oxo-1-oxa-3,8-diazaspiro[4.5]decan-8-yl)-2-(trifluoromethyl)nicotinonitrile] it is 6.19 µM.
`C=CC(=O)N1CCN(C2CN(c3cc(N4CCC5(CC4)OC(=O)NC5(C)C)nc(C(F)(F)F)c3C#N)C2)CC1` [Compound 3-032, 4-(3-(4-acryloylpiperazin-1-yl)azetidin-1-yl)-6-(4,4-dimethyl-2-oxo-1-oxa-3,8-diazaspiro[4.5]decan-8-yl)-2-(trifluoromethyl)nicotinonitrile] yielded an IC50 of 2.75 µM.
For `C=CC(=O)N1CCN([C@@H]2CN(c3cc(N4CCC5(CCC(=O)N5C)CC4)nc(C(F)(F)F)n3)[C@@H]2C)CC1` [Compound 3-020, 8-(6-((2R,3R)-3-(4-Acryloylpiperazin-1-yl)-2-methylazetidin-1-yl)-2-(trifluoromethyl)pyrimidin-4-yl)-1-methyl-1,8-diazaspiro[4.5]decan-2-one] the value was 1.6 µM; for `C=CC(=O)N1CCN(C2CN(c3cc(N4CCC5(C=C[C@@H](C)O5)CC4)nc(C(F)(F)F)c3C#N)C2)CC1` [Compound 3-068-1, (R)-4-(3-(4-acryloylpiperazin-1-yl)azetidin-1-yl)-6-(2-methyl-1-oxa-8-azaspiro[4.5]dec-3-en-8-yl)-2-(trifluoromethyl)nicotinonitrile], 1.28 µM; for `C=CC(=O)N1CCN([C@@H]2CN(c3cc(N4CCC5(CC4)OCCC=C5C)nc(C(F)F)n3)[C@@H]2C)CC1` [Compound 3-009, 1-(4-((2R,3R)-1-(2-(difluorometh-yl)-6-(5-methyl-1-oxa-9-azaspiro [5.5]undec-4-en-9-yl)-pyrimidin-4-yl)-2-methylazetidin-3-yl)piper-azin-1-yl)prop-2-en-1-one], 0.884 µM.
In the case of `C=CC(=O)N1CCN(C2CN(c3cc(N4CCC5(CC4)CCN(C4COC4)C5)nc(C(F)(F)F)c3C#N)C2)CC1` [Compound 3-048, 4-(3-(4-acryloylpiperazin-1-yl)azetidin-1-yl)-6-(2-(oxetan-3-yl)-2,8-diazaspiro[4.5]decan-8-yl)-2-(trifluoromethyl)nicotinonitrile], the IC50 was 2.29 µM.
